Laboratory results published in ChEMBL document CHEMBL4680312 (Bioorg Med Chem, 2021).
Calls of active or inactive are those of the source. No cut-off for these calls is given here.

Key:
Format in all cases: cell-based
Histamine H4 receptor [1] = molecular target: T1, Histamine H4 receptor (Homo sapiens, UniProt Q9H3N8); test: Displacement of [3H]-Histamine from human histamine 4 receptor transfected in HEK293T cells incubated for 16 hrs by liquid scintillation counter analysis
Histamine H3 receptor [2] = molecular target: T2, Histamine H3 receptor (Homo sapiens, UniProt Q9Y5N1); test: Displacement of [3H]-Histamine from human histamine 3 receptor transfected in HEK293T cells incubated for 16 hrs by liquid scintillation counter analysis
Histamine H3 receptor [3] = molecular target: T2, Histamine H3 receptor; test: Antagonist activity at human histamine 3 receptor transfected in human HEK293T cells assessed as reduction in histamine-induced activity at 10 uM incubated for 30 mins followed by histamine stimulation and measured immediately by BRET assay
Histamine H3 receptor [4] = molecular target: T2, Histamine H3 receptor; test: Activation of human histamine 3 receptor transfected in human HEK293T cells at 10 uM measured after 5 mins by BRET assay
Histamine H4 receptor [5] = molecular target: T1, Histamine H4 receptor; test: Antagonist activity at human histamine 4 receptor transfected in human HEK293T cells assessed as reduction in histamine-induced activity at 10 uM incubated for 30 mins followed by histamine stimulation and measured immediately by BRET assay; conditions: filed as antagonist
Histamine H4 receptor [6] = molecular target: T1, Histamine H4 receptor; test: Activation of human histamine 4 receptor transfected in human HEK293T cells measured after 5 mins by BRET assay; conditions: filed as partial agonist, dose 0.01-10 µM

T2 sequence (Q9Y5N1 whole entry): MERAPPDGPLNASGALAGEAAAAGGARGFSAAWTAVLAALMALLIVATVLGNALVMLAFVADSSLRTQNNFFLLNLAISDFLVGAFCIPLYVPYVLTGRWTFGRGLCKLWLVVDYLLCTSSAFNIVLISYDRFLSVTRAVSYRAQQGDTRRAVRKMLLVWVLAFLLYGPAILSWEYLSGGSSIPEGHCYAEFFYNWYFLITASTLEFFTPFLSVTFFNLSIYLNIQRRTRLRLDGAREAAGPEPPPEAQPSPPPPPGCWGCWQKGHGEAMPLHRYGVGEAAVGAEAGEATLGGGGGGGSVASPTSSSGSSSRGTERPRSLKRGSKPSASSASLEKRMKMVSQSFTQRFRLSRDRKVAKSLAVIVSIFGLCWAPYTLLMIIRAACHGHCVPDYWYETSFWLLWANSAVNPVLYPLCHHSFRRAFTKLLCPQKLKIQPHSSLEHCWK
T1 sequence (Q9H3N8 whole entry): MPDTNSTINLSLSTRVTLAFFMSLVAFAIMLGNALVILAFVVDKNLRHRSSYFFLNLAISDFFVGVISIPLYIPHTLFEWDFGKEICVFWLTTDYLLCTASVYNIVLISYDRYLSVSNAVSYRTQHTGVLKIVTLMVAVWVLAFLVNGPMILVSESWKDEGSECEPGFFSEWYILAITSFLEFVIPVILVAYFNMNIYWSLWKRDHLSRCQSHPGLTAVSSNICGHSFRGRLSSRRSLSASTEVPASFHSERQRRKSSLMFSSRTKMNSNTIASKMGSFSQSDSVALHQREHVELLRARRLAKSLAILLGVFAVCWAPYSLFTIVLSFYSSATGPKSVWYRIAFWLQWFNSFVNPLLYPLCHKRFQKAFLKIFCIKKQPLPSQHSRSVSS

In the case of CN1CCN(CC2Cc3cc(C(C)(C)C)ccc3O2)CC1 (stereo unspecified), the Ki (Histamine H4 receptor [1]) is reported as > 10 µM and the Ki (Histamine H3 receptor [2]) is reported as 0.794 µM.

For C=CCN1CCN(CC2Cc3cc(C(C)(C)C)ccc3O2)CC1 (stereo unspecified), the Activity (Histamine H3 receptor [3]; filed as antagonist) was “Active”, the Ki (Histamine H4 receptor [1]) was > 10 µM and the Ki (Histamine H3 receptor [2]) was 0.0158 µM. For the same compound, the Activity (Histamine H3 receptor [4]) was “inactive”.

With CN1CCN(C(=O)c2nc3ccc(Cl)cc3[nH]2)CC1 the Activity (Histamine H4 receptor [5]) was “Active”.

In the case of O=C(c1cc2ccccc2o1)N1CCN(c2ccccc2)CC1, the Ki (Histamine H4 receptor [1]) is reported as > 10 µM and the Ki (Histamine H3 receptor [2]) is reported as > 10 µM.

In the case of c1ccc(CN2CCN(CC3Cc4ccccc4O3)CC2)cc1 (stereo unspecified), the Ki (Histamine H4 receptor [1]) is reported as > 10 µM and the Ki (Histamine H3 receptor [2]) is reported as > 10 µM.

With C=CCN1CCN(CC2Cc3cc(-c4ccccc4)ccc3O2)CC1 (stereo unspecified) the Activity (Histamine H3 receptor [3]; filed as antagonist) was “Active”, the Ki (Histamine H4 receptor [1]) was > 10 µM and the Ki (Histamine H3 receptor [2]) was 0.00398 µM. For the same compound, the Activity (Histamine H3 receptor [4]) was “inactive”.

In the case of CN1CCN(Cc2ccc3c(c2)CCO3)CC1, the Ki (Histamine H4 receptor [1]) is reported as > 10 µM and the Ki (Histamine H3 receptor [2]) is reported as > 10 µM.

c1ccc(-c2ccc3c(c2)CC(CN2CCN(c4ccccc4)CC2)O3)cc1 (stereo unspecified) was tested, and the Ki (Histamine H4 receptor [1]) was > 10 µM and the Ki (Histamine H3 receptor [2]) was > 10 µM.

C=CCN1CCN(CC2Cc3ccccc3O2)CC1 (stereo unspecified) was tested, and the Ki (Histamine H4 receptor [1]) was > 10 µM.

For CN1CCN(CC2Cc3cc(Cl)ccc3O2)CC1 (stereo unspecified), the Ki (Histamine H4 receptor [1]) was 0.794 µM and the Ki (Histamine H3 receptor [2]) was 0.794 µM.

In the case of c1ccc(-c2ccc3c(c2)CC(CN2CCNCC2)O3)cc1 (stereo unspecified), the Activity (Histamine H3 receptor [3]) is reported as “inactive”, the Ki (Histamine H4 receptor [1]) is reported as > 10 µM and the Ki (Histamine H3 receptor [2]) is reported as 0.631 µM. The Activity (Histamine H3 receptor [4]) was “inactive”.

In the case of CN1CCN(Cc2cc3ccccc3o2)CC1, the Ki (Histamine H4 receptor [1]) is reported as > 10 µM and the Ki (Histamine H3 receptor [2]) is reported as > 10 µM.

CN1CCN(C(=O)c2cc3ccccc3o2)CC1 was tested, and the Activity (Histamine H4 receptor [6]) was “Dose-dependent effect”, the Ki (Histamine H4 receptor [1]) was 0.0794 µM and the Ki (Histamine H3 receptor [2]) was > 10 µM. For the same compound, the Activity (Histamine H4 receptor [5]) was “Active”.

With COc1ccc2c(c1)CC(CN1CCN(C)CC1)O2 (stereo unspecified) the Ki (Histamine H4 receptor [1]) was > 10 µM and the Ki (Histamine H3 receptor [2]) was 0.794 µM.

CN1CCN(CC2Cc3cc(-c4ccccc4)ccc3O2)CC1 (stereo unspecified) was tested, and the Activity (Histamine H3 receptor [3]; filed as antagonist) was “Active”, the Ki (Histamine H4 receptor [1]) was > 10 µM and the Ki (Histamine H3 receptor [2]) was 0.0398 µM. The Activity (Histamine H3 receptor [4]) was “inactive”.

For C=CCN1CCN(CC2Cc3cc(OC)ccc3O2)CC1 (stereo unspecified), the Activity (Histamine H3 receptor [3]; filed as antagonist) was “Active”, the Ki (Histamine H4 receptor [1]) was > 10 µM and the Ki (Histamine H3 receptor [2]) was 0.00631 µM. For the same compound, the Activity (Histamine H3 receptor [4]) was “inactive”.

With CC(C)(C)c1ccc2c(c1)CC(CN1CCN(c3ccccc3)CC1)O2 (stereo unspecified) the Activity (Histamine H3 receptor [3]) was “inactive”, the Ki (Histamine H4 receptor [1]) was > 10 µM and the Ki (Histamine H3 receptor [2]) was > 10 µM. The Activity (Histamine H3 receptor [4]) was “inactive”.
